# Results published in patent US20030064380A1, “Anergy-regulated molecules” (The Center For Blood Research, Inc., priority 2001, published 2003).
# Columns and labels:
# D5 and Th1 cells = assay: gene transcription profiles of ionomycin-induced genes (FIGS. 6B, 7B), Affymetrix arrays and real-time RT-PCR; format: cell-based, murine
# Experimental: D5 or primary T cells from NFAT1−/− or wild type DO11.10 transgenic mice were stimulated for 2, 6 or 16 hours with 500 nM ionomycin, 20 nM PMA plus 500 nM ionomycin, or 1 μM CsA plus 500 nM ionomycin. Total RNA was isolated with an RNeasy kit (QIAGEN). Ten μg of total RNA was quantitatively amplified and biotin-labeled as described (Byrne et al., (2000) “Preparation of mRNA for Expression Monitoring” Current Protocols in Molecular Biology (John Wiley & Sons, Inc.) pp. 22.22.21-22.22.13). Hybridization to GeneChips® (Affymetrix) displaying probes for 11,000 mouse genes/ESTs was performed at 40° C. overnight in a mix that included 10 μg fragmented RNA, 6× SSPE, 0.005% Triton X-100 and 100 μg/ml herring sperm DNA in a total volume of 200 μl. Chips were washed, stained with SA-PE and read using an Affymetrix GeneChip® scanner and accompanying gene expression software. […]
# Total RNA was prepared from resting or stimulated T cells using Ultraspec reagent (Biotecx). cDNA was synthesized using oligo-dT primers and Superscript polymerase (Invitrogen) following the manufacturer's recommendations. Quantitative real-time PCR was performed in an I-Cycler (BioRad) using a SYBR Green PCR kit from Applied Biosystems and specific primers to amplify 100-200 bp fragments from the different genes analyzed. A threshold was set in the linear part of the amplification curve (fluorescence=f[cycle number]) and the number of cycles needed to reach it calculated for every gene. […]
# Among them were many ESTs with no assigned function; a single cytokine gene, M-CSF; genes in other functional categories as shown in FIG. 6B; but no other genes normally associated with a productive immune response. […] To validate the array data, expression of 15 of the 18 genes were evaluated by quantitative real-time RT-PCR, and in every case ionomycin-mediated induction was confirmed (see numbers within panels of FIG. 6B). […]
# caspase-3 [1] = assay: Western blotting of ionomycin-treated T cells; format: cell-based, murine
# Experimental: Total cellular extracts were prepared by boiling cell pellets directly in SDS containing loading buffer to prevent proteolysis during cell lysis. Antibodies against caspase-3 (Santa Cruz) and active caspase-3 (Cell Signaling) were used. The polyclonal antibody 67.1 against NFAT1 has been described (Okamura et al., (2000) Mol. Cell. 6: 539-550).
# (§1) Of particular interest was the fact that several of the ionomycin-induced genes encoded proteins involved (or potentially involved) in protein degradation. Candidate genes in this category included caspase-3, SOCS-2 and Traf5 (FIG. 6B). Caspase-3 is an enzyme for which commercial reagents are readily available. Tests were conducted to determine whether caspase-3 was activated and functional in ionomycin-pretreated T cells. […] Further work will be necessary to establish whether proteolysis occurs in specific intracellular compartments relevant to TCR signal transduction or whether other signaling proteins are substrates for proteolysis in anergic cells.
# caspase-3 [2] = assay: RNase protection assay of caspase-3 mRNA; format: cell-based, murine; settings: D5 T cells
# Experimental: (§2) Total cellular RNA was purified from resting cells or cells stimulated with APC and antigen or anti-CD3 plus anti-CD28 for 4 h, using Ultraspec reagent (Biotecx) and analyzed using the RiboQuant multiprobe RNase protection kit and specific multi-set probes (Pharmingen) according to the manufacturer's instructions. Jurkat cells were transfected by electroporation in serum-free medium with pulses of 250 V and 960 μF with […] of pEGFPN1 (Clontech) or pNLS-NFAT1 (ST2+5+8) (Okamura et al., (2000) Mol. Cell. 6: 539-550). RNA from transiently transfected Jurkat cells was obtained after selecting transfected cells for expression of a cotransfected murine CD4 plasmid using magnetic beads (Dynal).
# as §1
# D5 T cells = assay: proliferation assay (3H-thymidine) of D5 T cells after ionomycin pretreatment; format: cell-based, murine
# Experimental: D5 or primary T cells were stimulated with APC and antigen and pulsed for 24 hours with 10 μCi/ml ^3H-thymidine. DNA was collected using a cell harvester and the amount of radioactivity incorporated was measured in a β-counter.
# (§3) The murine antigen-specific Th1 clone D5 was used to set up the model of clonal anergy developed by Schwartz and coworkers (Schwartz, (1996) J. Exp. Med. 184: 1-8).
# Th1 cells = assay: cytokine mRNA induction in primary Th1 cells after tolerising pretreatment; format: cell-based, mice
# Experimental: The murine Th1 cell clone D5 (Ar-5) was cultured as previously described (Agarwal and Rao, (1998) Immunity 9: 765-775). Primary CD4+T cells were isolated from lymph nodes and spleen of NFAT1−/− or wild type DO11.10 transgenic mice using magnetic beads (Dynal), and differentiated in vitro by stimulating for one week with irradiated APC and 1 μg/ml OVA as previously described (Agarwal and Rao, (1998) Immunity 9: 765-775). Jurkat and Phoenix Ecotropic cells were cultured in Dulbecco's modified Eagle's medium supplemented with 10% fetal calf serum, 10 mM HEPES and 2 mM glutamine.
# as §2
# Thus the net effect of a tolerising stimulus on T cells is to skew the cytokine response towards production of the immunosuppressive cytokine […], while down-regulating production of multiple other cytokines and chemokines associated with a productive immune response.
# The anergised cells were fully responsive to PMA and ionomycin, stimuli which bypass the membrane-proximal steps of TCR signal transduction.
# D5 cells = assay: transcription of inducible genes in ionomycin-treated D5 cells on second stimulation (RNase protection); format: cell-based, murine; settings: second stimulation with anti-CD3/anti-CD28 or antigen/APC
# Experimental: as §2, §3
# [3] = primary Th1 cells, pretreatment, subsequent stimulation with antigen
structure (smiles),measurement,setting,value
"C[C@H](CCC(=O)O)C[C@H](C)C[C@H](C)C(=O)/C=C(\O)[C@H](C)C[C@H](C)C/C=C/[C@@H](C)[C@@H](O)[C@@H](C)[C@@H](O)C[C@@H]1CC[C@@](C)([C@H]2CC[C@@](C)([C@@H](C)O)O2)O1 [Ionomycin, ionomycin]","induction of Grg4, Ikaros, PTP-1B and GBP-3",D5 and Th1 cells; compared to PMA/ionomycin,more strongly induced
same,induction of Rab-10,D5 and Th1 cells; early times,markedly induced
same,"induction of jumonji, CD98 and FasL",D5 and Th1 cells; ionomycin versus PMA/ionomycin,similarly induced
same,"caspase-3 protein (procaspase 3, p20 and active p17 forms)","caspase-3 [1]; ionomycin-treated T cells, 6 h to 16-18 h",induced at the protein level and activated
same,"cleavage of Vav-1, Gads and PKC-theta","caspase-3 [1]; treated D5 cells, Western blots",minor cleavage
same,caspase-3 mRNA level,caspase-3 [2],upregulated
same,subsequent proliferative response to antigen or anti-CD3,D5 T cells,greatly diminished
same,induction of IL-2 and IFN-γ mRNA,"Th1 cells; NFAT1−/− Th1 cells, after pretreatment",perceptible induction
same,effect on Fas-L mRNA,Th1 cells; [3],less effect
same,"induction of IL-2, IFN-γ, IL-10, TNF-α and MIP-1α mRNAs",Th1 cells; [3],pronounced decrease
same,induction of L-2 and IFN-γ mRNA,"Th1 cells; wildtype DO11.10 Th1 T cells, pretreatment",markedly decreased
same,"transcription of inducible genes including IL-2, IFN-γ, TNF-α, GM-CSF and MIP-1α",D5 cells,markedly decreased
